Source: patent publication US11530216B2, “Deuterated colony stimulating factor-1 receptor (CSF-1R) inhibitors” (Genzyme Corporation, priority 2020, dated 2022)
Entries after “also recorded” stand apart in the source; their conditions may differ. Where two headings read alike, the source gives them in different places.

Columns and labels:
primary murine microglia = test: Immunostaining of primary microglia (Iba1+ area, DAPI+ nuclei) after CSF-1 stimulation; assay type: cell-based, mouse; conditions: Mus musculus, Microglia
Protocol: Primary mouse microglia were suspended at a concentration of 5×10^5 cells/mL and 100 μL of this cell suspension was added to the inner 60 wells of three 96-well plates. Microglia cells were allowed to rest overnight at 37° C., 5% CO2. […] Cells were then stimulated with 100 ng/mL recombinant mouse CSF-1 for 24 hours. After stimulation, the culture supernatant was removed from each well and aliquoted into two different 96-well plates for subsequent ELISA assays. Plates were fixed with 4% PFA for future immunocytochemistry analysis. Following the stimulation, cells were fixed with 4% PFA for 20 minutes at room temperature. Cells were then rinsed in PBS, washed 3×5 minutes in 0.2% PBT (0.2% Triton X-100 in PBS) and blocked with 10% donkey serum/0.2% PBT for 1 hour at room temperature. […] After staining, plates were imaged on the IN Cell Analyzer 2200 with 9 fields of view acquired per well. […] A one-way ANOVA was used to determine the statistical significance of differences between samples. […] Following a microglial stimulation, immunocytochemistry was completed with Iba1, Ki67, and DAPI to determine microglial morphology, proliferative state, and number. InCell imaging microsope and analysis software was used to quantify Iba1^+ area, and the number of DAPI^+ nuclei within the cultures.

[1] = test system: primary mouse microglia (wild type, SOD1); test: CellTiter Glo 2.0 viability assay, wild-type and SOD1 primary microglia; assay type: cell-based; conditions: wild type and SOD1 cells
Protocol: (§1) The impact of a deuterated CSF-1R inhibitor of this disclosure on cytokine/chemokine production following CSF-1 or LPS stimulation in wild-type versus SOD1 mutant primary microglial cells was examined in the following experiments.
(§2) Methods Treatment and Stimulation of Primary Microglial Cells
(§3) Primary mouse microglia were suspended at a concentration of 5×10^5 cells/mL and 100 μL of this cell suspension was added to each well of a 96-well plate. Microglia cells were allowed to rest overnight at 37° C., 5% CO2. […] Cells were then stimulated with 100 ng/mL recombinant mouse M-CSF for 30 minutes or 10 ng/mL lipopolysaccharide for 24 hours. After stimulation, the culture supernatant was removed from each well and aliquoted into two different 96-well plates for subsequent ELISA assays.
Cell viability was determined using Promega's Cell Titer Glo Luminescent Cell Viability Assay. […] 100 μL was transferred from each well to a white plate and luminescence was read immediately on the FlexStation3 plate reader.
Primary murine microglia were plated at 50,000 cells per well and rested overnight. […] Cell viability was assessed after 24 hours utilizing Promega's Cell Titer Glo Assay Kit. Both CSF-1 and LPS stimulation induced a slight increase in the cell viability readout versus unstimulated cells (FIGS. 8A-8B and FIGS. 9A-9B).

[2] = test system: IL-12p40 production in primary mouse microglia (wild type, SOD1); test: IL-12p40 ELISA, wild-type and SOD1 primary microglia, LPS stimulation; assay type: cell-based; conditions: LPS stimulation, 50, 100, 200 nM, wild type and SOD1 cells
Protocol: as §1, §2, §3
Cell culture supernatants were assayed with the Quantikine Mouse IL-12p40 ELISA kit from R&D Systems (cat #MP400). Samples were diluted 1:10 with Calibrator Diluent. Fifty microliters of Assay Diluent were first added to each well. Fifty microliters of Standards, Assay Control and diluted Sample were then added in singlicate to the wells. The plate was mixed by gently tapping the frame, then sealed with an adhesive strip. The plate incubated for 2 hours at room temperature. […] After incubation, the acid stop solution was added to each well, and the plate was read on the ELISA plate reader at 450 nm.

[3] = test system: MCP-1 production in iCell microglia (human iPSC derived microglia); test: MCP-1 ELISA, iCell human microglia, CSF1 stimulation; assay type: cell-based; conditions: 1.5625-200 nM, CSF1 100 ng/mL 24 hours
Protocol: iCell microglia (human iPSC derived microglia) were acquired from FujiFilm (cat #C1110, lot #105458). These cells were thawed and maintained in iCell Microglia Complete Media according the manufacture instructions. For this assay, iCell microglia were resuspended at a concentration of 5×10^5 cells/mL and 100 μL of this cell suspension was added to the inner 60 wells of a 96-well plate. iCell microglia were allowed to rest overnight at 37° C., 5% CO2. The following evening, the media was removed and replaced with Neurobasal Media (Gibco, cat #21103049) containing B27 supplement (Gibco, cat #17504044). Again, cells were allowed to rest overnight at 37° C., 5% CO2. […] Cells were then stimulated with 100 ng/mL recombinant human CSF1 for 24 hours. After stimulation, the culture supernatant was removed from each well and aliquoted into two different 96-well plates for subsequent ELISA assays.
Culture supernatants were assayed with the Quantikine Human MCP-1 ELISA kit (R&D Systems, cat #SCP00). […] After incubation, fifty microliters of the acid stop solution was added to each well, and the plate was read on the FlexStation3 Multi-Mode Microplate Reader (Molecular Devices, cat #Flex3) with SoftMax Pro Software at 450 nm.
iCell microglia (human iPSC derived microglia) were plated at 50,000 cells per well and rested overnight. […] Cell viability was assessed utilizing Promega's Cell Titer Glo Assay Kit. […]

With `[2H]c1nc2cccnc2n1Cc1cc(OC)c2c(c1)O[C@@H](C)[C@H](c1ccc(OC)nc1)O2` [Compound 6, 3-(((2S,3S)-8-methoxy-2-(6-methoxypyridin-3-yl)-3-methyl-2,3-dihydrobenzo[b][1,4]dioxin-6-yl)methyl)-3H-imidazo[4,5-b]pyridine-2-d] the IC50 (primary murine microglia; read-out: IC50 for DAPI (DAPI+ cell number)) was 0.248 µM, the IC50 (primary murine microglia; read-out: IC50 for Iba1 (Iba1+ area)) was 0.0846 µM and the cell viability ([1]; CSF-1 stimulation, 50, 100, 200 nM) was “no toxic effect on microglia at the concentrations assessed; also recorded: slightly reduced the CSF-1-induced increase in cell viability”. For the same compound, the cell viability ([1]; LPS stimulation, 50, 100, 200 nM) was “no deleterious effect on cell viability”, the IL12-p40 production [2] was “significantly reduced IL12-p40 production in a concentration dependent manner” and the MCP1 production [3] was “significantly reduced MCP1 production in a concentration dependent manner”.
